# Legend:
# fire ant workers [1] = assay: Example 14 feeding experiments: fire ant worker mortality
# female sexuals (alates) = assay: Worker attraction to poison sac extracts of dealates (queen pheromone bioassay); format: in vivo, Solenopsis invicta; conditions: extracts from dealates of fed sub-colonies
# [2] = tested on: monogyne queenright colonies; assay: Feeding of monogyne queenright colonies: worker and queen mortality; format: in vivo, Solenopsis invicta; conditions: 1% in 10% sucrose, 27 d
# Excerpt: FIGS. 24A and 24B show results for the sucrose (10%) control and two treatments, tyramine (1%) and N-methyl-tyramine (1%), both dissolved in 10% sucrose. The control and test colonies were monogyne queenright colonies, containing a single queen, brood and workers started in the laboratory from newly mated queens collected in the field. The mean number of workers per colony was 8,400±400. […] Previous experiments used queenless sub-colonies, rather than the queenright colonies in these experiments. The mortality effect on colony queens was unexpected, since worker fire ants are completely sterile and cannot reproduce even if the queen dies. Therefore, when the reproductive queen dies no more brood is produced and the colony is no longer functional—it is considered dead. […] Therefore, 80% of the treated colonies were considered dead.
# [3] = Solubility in aqueous solution; format: physicochemical; conditions: solution
# fire ant workers [4] = assay: Five biogenic amines fed to fire ant workers as droplets; format: in vivo, Solenopsis invicta; conditions: 1% (w/v) as HCl salts in 10% sucrose, 48 h, 60 workers
# Description: Tyramine is one of five biogenic amines that may be found in insects (e.g., dopamine, histamine, octopamine, serotonin, and tyramine). The experiment in this example tests whether fire ant worker mortality effects observed with tyramine may be a general result of the ants ingesting greater than normal amounts of a biogenic amine. To test this hypothesis groups of 20 fire ant worker ants were starved for 24 hours and fed a 1% (w/v) biogenic amine in 10% sucrose solution. Treatments and sucrose were presented to the worker ants as a 25 microliter droplet on a 2 cm^2 piece of silicon treated filter paper. Each treatment and control were performed in triplicate for a total of 60 worker ants per treatment and control. Mortality was monitored for the first 7-8 h after introduction of the sucrose solutions, then at 24 h. The feeding/monitoring sequence was repeated for another 24 h period for a total of 48 h. The results are shown in FIG. 12A-12B in the form of Kaplan-Meier mortality curves.
# [5] = tested on: mature female alates (MFAs); assay: Injection into MFA abdomen: ovariole development and egg-laying; format: in vivo, Solenopsis invicta; conditions: 100 nL of a 1.0% saline solution (1 microgram) injected
# Excerpt: Two measures of ovariole development were used. […] Measurement of ovariole area in the same samples gave a quantitative measure of ovariole development. […] Within the context of a colony this effect would be in direct conflict with the colony queen. Eggs laid would not be fertile and therefore develop into males. Queen pheromone is also produced by […], which would act to reduce the fecundity of the colony queen. For example, in polygyne colonies the higher the number of queens the lower is the mean egg-laying rate/queen due to the presence of excess queen pheromone (see Vander Meer, R. K., et al. (1992), A comparison of queen oviposition rates from monogyne and polygyne fire ant, Solenopsis invicta, colonies.
# [6] = tested on: mature female alates (MFAs); assay: Injection into MFA abdomen: wing loss (dealation); format: in vivo, Solenopsis invicta; conditions: 100 nL of a 1.0% saline solution injected into the MFA abdomen
# Excerpt: While the MFAs are in their mother colony, the queen releases primer pheromones that inhibit wing loss (sometimes referred to herein as “dealation”), development of ovaries, wing muscle histolysis, and pheromone production. This release prevents reproductive/resource competition between the MFAs and the mother queen. If MFAs are removed from the colony, they become disinhibited and eventually (e.g., within days) lose their wings and start the physiological processes (e.g., wing loss and ovariole development). MFA also become disinhibited when they leave the colony on a mating flight; however, in this case the now NMQs lose their wings within minutes of landing and initiate the above mentioned physiological/biochemical changes (e.g., wing loss and ovariole development). We know from previous experiments that mating is the trigger, not mating flight initiation or the act of flying (Burns, S. N., et al. (2002) Identification and action of juvenile hormone III from sexually mature alate females of the red imported fire ant, Solenopsis invicta. Journal of Insect Physiology 48: 357-365; Burns, S. N., et al. (2005), The effect of age and social environment on dealation in Solenopsis invicta (Hymenoptera: Formicidae) female […]. […] Burns, S. N., et al. […]
# 4th instar sexual larvae = assay: Direct (hand) feeding of 4th instar sexual larvae; format: in vivo, Solenopsis invicta; conditions: fed once, 80 nL max of about 1% w/v in 10% sucrose; N=10
# Excerpt: It was concluded that the 4th instar larvae are refractory to the mortality effects observed when workers are fed tyramine.
# fire ant workers [7] = assay: Droplet feeding of worker groups: mortality over 24 h and concentration series; format: in vivo; conditions: about 1% in 10% sucrose
# Description: To determine how quickly the tyramine and acetyl tyramide act, 60 workers were allowed to feed on tyramine (FIG. 8A) or acetyl tyramide (FIG. 8B) dissolved at about 1% in 10% sucrose solution. The control and treatments were presented to the worker ants as droplets on phase separation filter paper. Consumption of the droplets was readily observed. Mortality was monitored for each of the first 10 hours and then at 24 hours. […] Tyramine and acetyl tyramide had >50% and >40% mortality, respectively within the 24 h time period of the experiment. […] This distribution is a cornerstone of pest ant baits. To test this hypothesis, a similar experiment was conducted. Workers were allowed to feed on the treatment and control solutions and were then transferred to another container with unfed nestmates. In all cases, it was observed that the treatment fed workers regurgitated the treatment and sucrose solutions to their unfed nestmates through the classic mechanism of trophallaxis (data not shown). Thus, normal worker behavior necessary for bait development was not affected by the treatments under these experimental conditions.
# One criteria for an effective pest ant Active Ingredient (AI) is maintenance of activity over 1-3 orders of magnitude, because as the bait is distributed from one ant to another the material is diluted. The AI must maintain activity until all individuals in the colony (e.g., workers, brood and sexuals including the queen) have received the AI. […] Journal of Economic Entomology 99(5): 1739-1748). The 0.01% had >24 h delay in mortality.
compound,measurement,setting,value
COc1ccccc1CCN [2-methoxy-phenethylamine],fire ant worker mortality versus 10% sucrose control,fire ant workers [1]; 1.0% in 10% sucrose,No difference in mortality
COc1ccc(CCN)cc1Cl [3-chloro-4-methoxyphenethylamine],fire ant worker mortality versus 10% sucrose control,fire ant workers [1]; 0.1% in 10% sucrose,significantly different from the 10% sucrose control
same,fire ant worker mortality versus 10% sucrose control,fire ant workers [1]; 1.0% in 10% sucrose,significantly different from the 10% sucrose control
same,mortality,fire ant workers [1]; 1.0 and 0.1% in 10% sucrose,about 8%
COc1cccc(CCN)c1 [3-methoxy-phenethylamine],fire ant worker mortality versus 10% sucrose control,fire ant workers [1]; 1.0% in 10% sucrose,No difference in mortality
"NCCc1ccc(Br)cc1 [4-bromophenethylamine, 4-bromo-phenethylamine]",fire ant worker mortality versus 10% sucrose control,fire ant workers [1]; 1.0% in 10% sucrose,"Significant, but low, worker mortality"
"NCCc1ccc(Cl)cc1 [4-chlorophenethylamine, 4-chloro-phenethylamine]",fire ant worker mortality versus 10% sucrose control,fire ant workers [1]; 1.0% in 10% sucrose,"Significant, but low, worker mortality"
NCCc1ccc(F)cc1 [4-flurophenethylamine],fire ant worker mortality versus 10% sucrose control,fire ant workers [1]; 1.0% in 10% sucrose,"Significant, but low, worker mortality"
COc1ccc(CCN)cc1 [4-methoxy-phenethylamine],fire ant worker mortality versus 10% sucrose control,fire ant workers [1]; 1.0% in 10% sucrose,No difference in mortality
"CN(C)CCc1ccc(O)cc1 [N,N-dimethyl-tyramine]",fire ant worker mortality versus 10% sucrose control,fire ant workers [1]; 1.0% in 10% sucrose,no difference in mortality
CNCCc1ccc(O)cc1.Cl [N-methyl-tyramine (HCl)],fire ant worker mortality versus 10% sucrose control,fire ant workers [1]; 0.01% in 10% sucrose,significantly different from the sucrose control
same,speed of worker mortality versus tyramine at the same concentration,"fire ant workers [1]; 0.01%, p<0.01",significantly faster than the 0.01% tyramine
same,fire ant worker mortality versus 10% sucrose control,fire ant workers [1]; 0.1% in 10% sucrose,significantly different from the sucrose control
same,speed of worker mortality versus tyramine at the same concentration,"fire ant workers [1]; 0.1%, p=0.22",not significantly faster than the 0.1% tyramine
same,fire ant worker mortality versus 10% sucrose control,fire ant workers [1]; 1.0% in 10% sucrose,significantly different from the sucrose control
same,speed of worker mortality versus tyramine at the same concentration,"fire ant workers [1]; 1.0%, p<0.001",significantly faster worker mortality than the 1.0% tyramine
same,speed of action compared to the N-methyl tyramine free-base,fire ant workers [1]; in vivo,appears to be quicker acting
"CNCCc1ccc(O)cc1 [N-methyl-tyramine (free base), N-methyl-tyramine]",worker attraction to poison sac extracts compared among active treatments,female sexuals (alates),significantly greater worker attraction than poison sac extracts from tyramine treatments
same,"worker attraction to poison sac extracts versus N,N-dimethyl tyramine treatment and controls",female sexuals (alates),"significantly different from those from the N,N-dimethyl tyramine treatment and the sucrose and hexane controls"
same,% worker mortality at the end of the experiment versus control,[2],significantly different from the corresponding controls
same,fate of colony queens (five replicates),[2],all queen replicates (5) died
same,queen mortality at the end of the experiment versus control,[2],significantly different from the corresponding controls
same,colonies considered dead,[2]; five colonies,100%
same,solubility maximum,[3],1%
same,fire ant worker mortality versus 10% sucrose control,fire ant workers [1]; 0.01% in 10% sucrose,significantly different from the 10% sucrose control
same,fire ant worker mortality versus 10% sucrose control,fire ant workers [1]; 0.1% in 10% sucrose,significantly different from the 10% sucrose control
same,fire ant worker mortality versus 10% sucrose control,fire ant workers [1]; 1.0% in 10% sucrose,significantly different from the 10% sucrose control
same,mortality at the two lower concentrations (0.1 and 0.01%) versus the 1.0% concentration,fire ant workers [1]; in 10% sucrose,significantly higher mortality than the 1.0% concentration
NCCc1ccc(O)c(O)c1 [dopamine],worker mortality (Kaplan-Meier),fire ant workers [4],did not result in significant mortality
CCCCCC(=O)NCCc1ccc(O)cc1 [hexanoyl tyramide],degradation of the tyramide,MFA mid- and hind-gut,No degradation of the tyramide was observed
same,"ovariole development, ovariole area, compared to controls",[5],not hexanoyl tyramide caused significant ovariole development
same,"ovariole development, ovary rank 1-4, compared to the control",[5],significant ovariole development
NCCc1c[nH]cn1 [histamine],worker mortality (Kaplan-Meier),fire ant workers [4],did not result in significant mortality
NCC(O)c1ccc(O)cc1 (stereo not drawn) [octopamine],worker mortality (Kaplan-Meier),fire ant workers [4],did not result in significant mortality
NCCc1c[nH]c2ccc(O)cc12 [serotonin],worker mortality (Kaplan-Meier),fire ant workers [4],did not result in significant mortality
Cl.NCCc1ccc(O)cc1 [tyramine HCl],worker attraction to poison sac extracts compared among active treatments,female sexuals (alates),not different from tyramine or N-methyl tyramine
same,"worker attraction to poison sac extracts versus N,N-dimethyl tyramine treatment and controls",female sexuals (alates),"significantly different from those from the N,N-dimethyl tyramine treatment and the sucrose and hexane controls"
same,worker mortality (Kaplan-Meier),fire ant workers [4],statistically greater mortality than the control and the other 4 biogenic amines
acetyl tyramide,degradation of the tyramide,MFA mid- and hind-gut,No degradation of the tyramide was observed
same,dealation (wing loss) compared to the control,[6],significantly faster and inappropriate dealation
same,mortality / sickness of 4th instar sexual larvae,4th instar sexual larvae,none of the acetyl tyramide treatments died or appeared sick
same,"ovariole development, ovariole area, compared to controls",[5],caused significant ovariole development
same,"ovariole development, ovary rank 1-4, compared to the control",[5],significant ovariole development
same,"worker mortality compared with sucrose control (Kaplan-Meier, Log-rank)",fire ant workers [7]; 24 h,significantly greater worker mortality than the sucrose control
same,worker mortality within the 24 h time period,"fire ant workers [7]; droplets, 60 workers",> 40%

# Reference: US10568320B2, “Biologically-based control methods for insect pests” (The United States of America, as represented by the …, priority 2017, dated 2020)
